These results are taken from patent US9085576B2 (AMGEN INC., priority 2013, dated 2015).

For one assay, the target named is BACE (Homo sapiens (Human), UniProt P56817). Description: In vitro BACE cell-based assay (Aβ40 in conditioned medium, sandwich ELISA). (In an ELISA, binding on a coated surface is turned into a signal by an enzyme label.)
For assay [1], the target named is Beta Secretase enzyme (BACE) (Homo sapiens (Human), UniProt P56817). Description: In vitro enzymatic BACE FRET assay. It is filed as biochemical. Conditions: read-out: BACE1 Enzyme assay IC50.
In the next assay the target is Cathepsin D (Cat D) (Homo sapiens (Human), UniProt P07339). Description: In vitro enzymatic Cathepsin D (Cat D) FRET assay. The class given is biochemical. Conditions: read-out: CatD IC50.

Each structure is given as a SMILES string.

Sequence of BACE (P56817 46-501, species assumed): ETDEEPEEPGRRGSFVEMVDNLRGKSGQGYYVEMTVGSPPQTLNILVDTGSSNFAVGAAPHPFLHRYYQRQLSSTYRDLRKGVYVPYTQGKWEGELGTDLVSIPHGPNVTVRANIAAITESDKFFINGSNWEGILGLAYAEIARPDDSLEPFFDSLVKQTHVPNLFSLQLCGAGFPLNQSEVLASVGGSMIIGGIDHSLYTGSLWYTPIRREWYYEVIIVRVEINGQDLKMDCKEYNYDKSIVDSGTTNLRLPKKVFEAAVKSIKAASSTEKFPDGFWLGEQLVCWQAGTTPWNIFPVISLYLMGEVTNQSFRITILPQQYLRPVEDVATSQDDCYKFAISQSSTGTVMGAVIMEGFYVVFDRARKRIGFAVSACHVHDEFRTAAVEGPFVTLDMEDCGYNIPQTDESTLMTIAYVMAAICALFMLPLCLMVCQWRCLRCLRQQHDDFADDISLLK
Sequence of Beta Secretase enzyme (BACE) (P56817 46-501): as the sequence (P56817 46-501, species assumed) above
Sequence of Cathepsin D (Cat D) (P07339 65-412, species assumed): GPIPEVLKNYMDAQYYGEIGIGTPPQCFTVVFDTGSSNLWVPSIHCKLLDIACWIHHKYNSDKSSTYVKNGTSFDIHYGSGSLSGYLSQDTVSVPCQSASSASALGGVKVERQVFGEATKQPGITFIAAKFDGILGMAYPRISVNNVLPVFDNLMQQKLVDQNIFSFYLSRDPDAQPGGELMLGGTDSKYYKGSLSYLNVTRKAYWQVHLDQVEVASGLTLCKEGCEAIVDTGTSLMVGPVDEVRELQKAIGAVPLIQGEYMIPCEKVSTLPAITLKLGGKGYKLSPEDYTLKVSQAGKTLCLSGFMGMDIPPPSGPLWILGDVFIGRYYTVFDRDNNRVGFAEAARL

As to `N#Cc1cnc2c(Nc3ccc(F)c([C@@]4(C(F)F)N=C(N)O[C@@H]5C[C@@H]54)c3)ncc(F)c2c1` [Example 352, 8-((3-((1R,5S,6R)-3-amino-5-(difluoromethyl)-2-oxa-4-azabicyclo[4.1.0]hept-3-en-5-yl)-4-fluorophenyl)amino)-5-fluoro-1,7-naphthyridine-3-carbonitrile], the IC50 against BACE stood at 0.0593 µM; in assay [1] it was 0.0391 µM; at Cathepsin D (Cat D) it was 192 µM.
In the same order, the values of `NC1=N[C@@](c2cc(Nc3ncnc4cc(Cl)cnc34)ccc2F)(C(F)F)[C@H]2C[C@H]2O1` [Example 353, (1R,5S,6R)-5-(5-((7-chloropyrido[3,2-d]pyrimidin-4-yl)amino)-2-fluorophenyl)-5-(difluoromethyl)-2-oxa-4-azabicyclo[4.1.0]hept-3-en-3-amine] are 0.0503 µM, 0.0639 µM and 141 µM.
For `COc1cnc2c(Nc3ccc(F)c([C@]4(CF)N=C(N)O[C@H]5C[C@H]54)c3F)nccc2n1` [Example 354, (1S,5R,6S)-5-(2,6-difluoro-3-((2-methoxypyrido[3,4-b]pyrazin-5-yl)amino)phenyl)-5-(fluoromethyl)-2-oxa-4-azabicyclo[4.1.0]hept-3-en-3-amine], the values for the 50% inhibitory concentration (IC50) (against BACE; in assay [1]; on Cathepsin D (Cat D)) were 1.46 µM, 12.7 µM and 292 µM, respectively.
With `COc1cnc2c(Nc3ccc(F)c([C@@]4(CF)N=C(N)O[C@@H]5C[C@@H]54)c3F)nccc2n1` [Example 355, (1R,5S,6R)-5-(2,6-difluoro-3-((2-methoxypyrido[3,4-b]pyrazin-5-yl)amino)phenyl)-5-(fluoromethyl)-2-oxa-4-azabicyclo[4.1.0]hept-3-en-3-amine], the IC50 against BACE is above 15.6 µM; in assay [1] it was above 40 µM; at Cathepsin D (Cat D) it was 2750 µM.
For `CC(C)Oc1cnc2c(Nc3cc(Cl)c(F)c([C@@]4(CF)N=C(N)O[C@@H]5C[C@@H]54)c3)nccc2n1` [Example 357, (1R,5S,6R)-5-(3-chloro-2-fluoro-5-((2-isopropoxypyrido[3,4-b]pyrazin-5-yl)amino)phenyl)-5-(fluoromethyl)-2-oxa-4-azabicyclo[4.1.0]hept-3-en-3-amine], the figures for the IC50 (at BACE; in assay [1]; at Cathepsin D (Cat D)) were 0.918 µM, 0.375 µM and 323 µM, respectively.
On to `Cn1cc2ccnc(Nc3ccc(F)c([C@@]4(C(F)F)N=C(N)O[C@@H]5C[C@@H]54)c3)c2n1` [Example 358], for which the IC50 at BACE was 0.134 µM; in assay [1] it was 2.09 µM; at Cathepsin D (Cat D), above 400 µM.
Turning to `NC1=N[C@](CF)(c2cc(Nc3nccc4cc(Cl)cnc34)ccc2Cl)[C@H]2C[C@H]2O1` [Example 359, (1R,5S,6R)-5-(2-chloro-5-((3-chloro-1,7-naphthyridin-8-yl)amino)phenyl)-5-(fluoromethyl)-2-oxa-4-azabicyclo[4.1.0]hept-3-en-3-amine], the IC50 turned out to be 0.0656 µM against BACE, 0.0291 µM in assay [1] and 251 µM on Cathepsin D (Cat D).
Consider `COc1cnc2c(Nc3ccc(Cl)c([C@@]4(CF)N=C(N)O[C@@H]5C[C@@H]54)c3)nccc2c1` [Example 360, (1R,5S,6R)-5-(2-chloro-5-((3-methoxy-1,7-naphthyridin-8-yl)amino)phenyl)-5-(fluoromethyl)-2-oxa-4-azabicyclo[4.1.0]hept-3-en-3-amine], for which the IC50 at BACE turned out to be 0.139 µM; in assay [1], 1.26 µM; on Cathepsin D (Cat D), 843 µM.
On to `NC1=N[C@@](c2cc(Nc3nccc4cc(Cl)cnc34)ccc2F)(C(F)F)[C@H]2C[C@H]2O1` [Example 362, (1R,5S,6R)-5-(5-((3-chloro-1,7-naphthyridin-8-yl)amino)-2-fluorophenyl)-5-(difluoromethyl)-2-oxa-4-azabicyclo[4.1.0]hept-3-en-3-amine], for which the 50% inhibitory concentration (IC50) came out at 0.254 µM at BACE, 0.0335 µM in assay [1] and 400 µM on Cathepsin D (Cat D).
With `N#Cc1cnc2c(Nc3ccc(Cl)c([C@@]4(CF)N=C(N)O[C@@H]5C[C@@H]54)c3)ncc(F)c2c1` [Example 363, 8-((3-((1R,5S,6R)-3-amino-5-(fluoromethyl)-2-oxa-4-azabicyclo[4.1.0]hept-3-en-5-yl)-4-chlorophenyl)amino)-5-fluoro-1,7-naphthyridine-3-carbonitrile], the IC50 on BACE was 0.13 µM; in assay [1], 0.0682 µM; on Cathepsin D (Cat D) it was above 44.4 µM.
As for `COc1cnc2c(Nc3ccc(F)c([C@@]4(C(F)F)N=C(N)O[C@@H]5C[C@@H]54)c3)ncnc2c1` [Example 364, (1R,5S,6R)-5-(difluoromethyl)-5-(2-fluoro-5-((7-methoxypyrido[3,2-d]pyrimidin-4-yl)amino)phenyl)-2-oxa-4-azabicyclo[4.1.0]hept-3-en-3-amine], the IC50 against BACE stood at 0.122 µM; in assay [1], 0.224 µM; at Cathepsin D (Cat D) it was 596 µM.
On to `NC1=N[C@@](c2cc(Nc3nccc4nc(C(F)(F)F)cnc34)ccc2F)(C(F)F)[C@H]2C[C@H]2O1` [Example 365, (1R,5S,6R)-5-(difluoromethyl)-5-(2-fluoro-5-((2-(trifluoromethyl)pyrido[3,4-b]pyrazin-5-yl)amino)phenyl)-2-oxa-4-azabicyclo[4.1.0]hept-3-en-3-amine], for which the IC50 is 0.254 µM on BACE, 0.205 µM in assay [1] and above 44.4 µM at Cathepsin D (Cat D).
On to `N#Cc1cnc2c(Nc3cc(F)c(F)c([C@]4(C(F)F)N=C(N)O[C@H]5C[C@H]54)c3)ncc(F)c2c1` [Example 366, 8-((3-((1S,5R,6S)-3-amino-5-(difluoromethyl)-2-oxa-4-azabicyclo[4.1.0]hept-3-en-5-yl)-4,5-difluorophenyl)amino)-5-fluoro-1,7-naphthyridine-3-carbonitrile], for which the IC50 on BACE was above 16 µM; in assay [1], above 13.7 µM; at Cathepsin D (Cat D), 128 µM.
As for `N#Cc1cnc2c(Nc3cc(F)c(F)c([C@@]4(C(F)F)N=C(N)O[C@@H]5C[C@@H]54)c3)ncc(F)c2c1` [Example 367, 8-((3-((1R,5S,6R)-3-amino-5-(difluoromethyl)-2-oxa-4-azabicyclo[4.1.0]hept-3-en-5-yl)-4,5-difluorophenyl)amino)-5-fluoro-1,7-naphthyridine-3-carbonitrile], the IC50 against BACE turned out to be 0.524 µM; in assay [1], 0.0515 µM; at Cathepsin D (Cat D), 103 µM.
As to `NC1=N[C@@](c2cc(NCC3CCC3)ccc2F)(C(F)F)[C@H]2C[C@H]2O1` [Example 368, (1R,5S,6R)-5-(5-((cyclobutylmethyl)amino)-2-fluorophenyl)-5-(difluoromethyl)-2-oxa-4-azabicyclo[4.1.0]hept-3-en-3-amine], the results for the IC50 (against BACE; in assay [1]; at Cathepsin D (Cat D)) were 1.33 µM, 2.74 µM and 121 µM, respectively.
Take `NC1=N[C@@](c2cc(NCC#Cc3ccccc3)ccc2F)(C(F)F)[C@H]2C[C@H]2O1` [Example 369, (1R,5S,6R)-5-(difluoromethyl)-5-(2-fluoro-5-((3-phenylprop-2-yn-1-yl)amino)phenyl)-2-oxa-4-azabicyclo[4.1.0]hept-3-en-3-amine]: the IC50 stood at 3.02 µM against BACE, 6.63 µM in assay [1] and 19.2 µM on Cathepsin D (Cat D).
On to `NC1=N[C@@](c2cc(NCC3(c4ccc(Cl)cc4)CC3)ccc2F)(C(F)F)[C@H]2C[C@H]2O1` [Example 370, (1R,5S,6R)-5-(5-(((1-(4-chlorophenyl)cyclopropyl)methyl)amino)-2-fluorophenyl)-5-(difluoromethyl)-2-oxa-4-azabicyclo[4.1.0]hept-3-en-3-amine], for which the IC50 against BACE was 8.85 µM; in assay [1], 13.7 µM; at Cathepsin D (Cat D), 63.6 µM.

By IC50 is commonly meant the concentration that gives 50% inhibition.
